Assay results: patent US20240245682A1, “ALPHA-V-BETA-8 INTEGRIN INHIBITORS AND USES THEREOF” (Pliant Therapeutics, Inc., priority 2022, published 2024)
pIC50: −log10 of the molar value.

Experiments:
Experiment in all cases: AlphaScreen proximity-based integrin binding assay with TGF-b1 LAP
Details in all cases: values given as ranges
human integrin αVβ1 = human integrin αVβ1 (Homo sapiens, UniProt P05556+P06756)
Protocol: (§1) The biochemical potency of the disclosed compounds was determined using the AlphaScreen® (Perkin Elmer, Waltham, MA) proximity-based assay as described previously (Ullman E F et al., Luminescent oxygen channeling immunoassay: Measurement of particle binding kinetics by chemiluminescence. Proc. Natl. Acad. Sci. USA, Vol. 91, pp. 5426-5430, June 1994, herein incorporated by reference in its entirety). To gauge the potency of inhibitors of binding to each of human integrins αVβ1, αVβ6, and αVβ8, inhibitor compounds were independently incubated with one of αVβ1, αVβ6, or αVβ8, together with TGF-b1 LAP and biotinylated anti-LAP antibody plus acceptor and donor beads, following the manufacture's recommendations. The donor beads were coated with streptavidin. […] All incubations occurred at room temperatures in 50 mM Tris-HCl, pH 7.5, 0.1% BSA supplemented with 1 mM each CaCl2 and MgCl2.
(§2) The order of reagent addition was as follows:
(§3) 1. αVβ1, αVβ6, or αVβ8 integrin, test inhibitor compound, LAP, biotinylated anti-LAP antibody and acceptor beads were all added together.
(§4) 2. After 2 hours, donor beads were added. After another 30 minute incubation, samples were then read.
(§5) Integrin binding was evaluated by exciting donor beads at 680 nm, and measuring the fluorescent signal produced, between 520-620 nm, using a Biotek Instruments (Winooski, VT, USA) SynergyNeo2 multimode plate reader. Compound potency was assessed by determining inhibitor concentrations required to reduce fluorescent light output by 50%. Data analysis for IC50 determinations was carried out by nonlinear four parameter logistic regression analysis using Dotmatics ELN Software (Core Informatics Inc., Branford, Ct). […] Comp #in the Table and Examples below refers to the compound of the corresponding Example number as described in the Synthetic Examples.

human integrin αVβ6 = human integrin αVβ6 (Homo sapiens, UniProt P06756+P18564)
Protocol: as §1, §2, §3, §4, §5

human integrin αVβ8 = human integrin αVβ8 (Homo sapiens, UniProt P06756+P26012)
Protocol: as §1, §2, §3, §4, §5

Sequence of human integrin αVβ1 (P06756 31-992 limits assumed): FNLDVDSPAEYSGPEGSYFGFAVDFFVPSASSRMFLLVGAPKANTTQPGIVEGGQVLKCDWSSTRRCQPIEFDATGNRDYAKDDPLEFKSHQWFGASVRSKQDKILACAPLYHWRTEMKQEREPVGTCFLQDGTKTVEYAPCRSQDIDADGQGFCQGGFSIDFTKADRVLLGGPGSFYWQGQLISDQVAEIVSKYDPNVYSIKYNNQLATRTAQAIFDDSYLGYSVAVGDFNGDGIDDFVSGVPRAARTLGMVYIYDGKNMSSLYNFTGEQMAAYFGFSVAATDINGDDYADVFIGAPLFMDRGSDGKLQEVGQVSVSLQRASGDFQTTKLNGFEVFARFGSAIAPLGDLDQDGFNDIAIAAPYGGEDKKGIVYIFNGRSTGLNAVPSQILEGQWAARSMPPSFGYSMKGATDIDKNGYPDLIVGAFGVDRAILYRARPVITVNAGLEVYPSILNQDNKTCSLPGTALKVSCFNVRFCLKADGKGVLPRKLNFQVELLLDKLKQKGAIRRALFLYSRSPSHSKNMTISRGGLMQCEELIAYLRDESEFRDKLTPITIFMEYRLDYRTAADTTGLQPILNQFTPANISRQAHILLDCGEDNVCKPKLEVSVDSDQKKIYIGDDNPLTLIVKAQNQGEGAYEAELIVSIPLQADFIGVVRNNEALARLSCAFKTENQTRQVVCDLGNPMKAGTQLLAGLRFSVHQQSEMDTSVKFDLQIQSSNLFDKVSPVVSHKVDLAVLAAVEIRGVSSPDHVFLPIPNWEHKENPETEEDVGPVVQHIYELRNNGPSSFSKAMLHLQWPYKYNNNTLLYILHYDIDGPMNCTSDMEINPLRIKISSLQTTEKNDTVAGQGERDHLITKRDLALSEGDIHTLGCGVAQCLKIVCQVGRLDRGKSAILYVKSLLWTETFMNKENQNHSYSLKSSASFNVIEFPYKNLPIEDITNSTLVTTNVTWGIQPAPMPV
Sequence of human integrin αVβ1 (P05556 21-728 limits assumed): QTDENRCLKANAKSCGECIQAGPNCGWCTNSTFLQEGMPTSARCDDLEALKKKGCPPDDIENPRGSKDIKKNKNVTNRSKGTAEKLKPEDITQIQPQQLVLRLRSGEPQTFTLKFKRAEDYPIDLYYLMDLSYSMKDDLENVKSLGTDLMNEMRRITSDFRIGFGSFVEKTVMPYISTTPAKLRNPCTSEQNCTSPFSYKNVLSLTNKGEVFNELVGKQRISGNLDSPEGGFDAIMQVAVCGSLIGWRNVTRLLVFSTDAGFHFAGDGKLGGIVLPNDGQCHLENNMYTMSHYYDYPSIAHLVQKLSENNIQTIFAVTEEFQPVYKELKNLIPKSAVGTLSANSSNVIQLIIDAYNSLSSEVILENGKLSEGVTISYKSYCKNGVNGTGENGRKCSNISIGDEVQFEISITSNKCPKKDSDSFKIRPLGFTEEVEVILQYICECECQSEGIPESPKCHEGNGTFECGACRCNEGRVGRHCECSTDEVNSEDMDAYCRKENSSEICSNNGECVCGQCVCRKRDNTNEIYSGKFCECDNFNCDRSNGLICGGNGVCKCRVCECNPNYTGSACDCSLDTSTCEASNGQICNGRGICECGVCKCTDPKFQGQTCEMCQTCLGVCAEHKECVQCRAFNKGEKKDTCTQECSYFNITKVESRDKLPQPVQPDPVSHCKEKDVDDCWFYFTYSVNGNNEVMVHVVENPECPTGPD
Sequence of human integrin αVβ8 (P06756 31-992 limits assumed): as the sequence (P06756 31-992 limits assumed) above
Sequence of human integrin αVβ8 (P26012 43-684 limits assumed): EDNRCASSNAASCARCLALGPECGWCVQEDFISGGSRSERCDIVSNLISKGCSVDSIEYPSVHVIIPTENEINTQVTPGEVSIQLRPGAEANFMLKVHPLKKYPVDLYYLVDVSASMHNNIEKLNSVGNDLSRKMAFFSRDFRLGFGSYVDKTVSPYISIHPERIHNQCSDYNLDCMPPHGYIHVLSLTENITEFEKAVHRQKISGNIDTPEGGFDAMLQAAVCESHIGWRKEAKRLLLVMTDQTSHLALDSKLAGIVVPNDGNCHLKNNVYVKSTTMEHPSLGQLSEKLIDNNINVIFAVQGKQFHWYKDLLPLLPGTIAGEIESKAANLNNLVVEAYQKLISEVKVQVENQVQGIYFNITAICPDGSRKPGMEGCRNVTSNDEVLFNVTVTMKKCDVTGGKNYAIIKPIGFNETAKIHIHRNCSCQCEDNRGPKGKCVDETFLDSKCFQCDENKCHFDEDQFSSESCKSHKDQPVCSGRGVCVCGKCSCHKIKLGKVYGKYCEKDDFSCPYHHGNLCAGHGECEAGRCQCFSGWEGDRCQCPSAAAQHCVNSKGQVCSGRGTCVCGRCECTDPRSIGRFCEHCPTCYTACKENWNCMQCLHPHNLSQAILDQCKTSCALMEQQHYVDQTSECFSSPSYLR
Sequence of human integrin αVβ6 (P06756 31-992 limits assumed): as the sequence (P06756 31-992 limits assumed) above
Sequence of human integrin αVβ6 (P18564 22-707 limits assumed): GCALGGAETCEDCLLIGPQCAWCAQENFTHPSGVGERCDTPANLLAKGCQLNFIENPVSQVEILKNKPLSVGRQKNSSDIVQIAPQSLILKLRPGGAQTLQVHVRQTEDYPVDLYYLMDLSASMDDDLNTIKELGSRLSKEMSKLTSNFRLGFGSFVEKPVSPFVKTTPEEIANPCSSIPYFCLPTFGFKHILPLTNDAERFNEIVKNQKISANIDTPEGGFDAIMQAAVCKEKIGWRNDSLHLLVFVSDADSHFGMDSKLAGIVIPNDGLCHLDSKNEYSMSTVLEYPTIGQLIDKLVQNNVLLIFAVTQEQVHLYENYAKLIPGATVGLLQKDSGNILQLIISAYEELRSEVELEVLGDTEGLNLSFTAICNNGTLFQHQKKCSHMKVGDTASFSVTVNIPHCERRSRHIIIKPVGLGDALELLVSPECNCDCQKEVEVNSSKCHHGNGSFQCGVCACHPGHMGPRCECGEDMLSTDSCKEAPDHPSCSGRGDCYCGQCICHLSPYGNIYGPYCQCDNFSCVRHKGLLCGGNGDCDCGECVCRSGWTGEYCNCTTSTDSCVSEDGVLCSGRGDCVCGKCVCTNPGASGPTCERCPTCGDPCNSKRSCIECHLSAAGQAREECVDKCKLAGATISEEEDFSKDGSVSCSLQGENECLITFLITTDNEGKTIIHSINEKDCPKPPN

| pIC50 (human integrin αVβ1) | pIC50 (human integrin αVβ6) | pIC50 (human integrin αVβ8) | SMILES |
| --- | --- | --- | --- |
| > 7.30 | ≤ 6.30 | 6.82 to 7.30 | N#Cc1ccccc1C1(C(=O)N[C@@H](CCOCCCCc2ccc3c(n2)NCCC3)C(=O)O)CC1 [Compound 45, N-(1-(2-cyanophenyl)cyclopropane-1-carbonyl)-O-(4-(5,6,7,8-tetrahydro-1,8-naphthyridin-2-yl)butyl)-L-homoserine] |
| > 7.30 | ≤ 6.30 | 6.82 to 7.30 | O=C(Cc1ccccc1)N[C@@H](CCOCCCCc1ccc2c(n1)NCCC2)C(=O)O [Compound 81, N-(2-phenylacetyl)-O-(4-(5,6,7,8-tetrahydro-1,8-naphthyridin-2-yl)butyl)-L-homoserine] |
| > 7.30 | ≤ 6.30 | > 7.30 | COc1ncnc(Cl)c1C1(C(=O)N[C@@H](CCOCCCCc2ccc3c(n2)NCCC3)C(=O)O)CC1 [Compound 62, N-(1-(4-chloro-6-methoxypyrimidin-5-yl)cyclopropane-1-carbonyl)-O-(4-(5,6,7,8-tetrahydro-1,8-naphthyridin-2-yl)butyl)-L-homoserine] |
| 6.60 to 6.82 | ≤ 6.30 | 6.82 to 7.30 | O=C(O)[C@H](CCOCCCCc1ccc2c(n1)NCCC2)NC(=O)C1(c2c(Cl)nc[nH]c2=O)CC1 [Compound 63, N-(1-(4-chloro-6-oxo-1,6-dihydropyrimidin-5-yl)cyclopropane-1-carbonyl)-O-(4-(5,6,7,8-tetrahydro-1,8-naphthyridin-2-yl)butyl)-L-homoserine] |
| > 7.30 | ≤ 6.30 | > 7.30 | N#Cc1c[nH]nc1C1(C(=O)N[C@@H](CCOCCCCc2ccc3c(n2)NCCC3)C(=O)O)CC1 [Compound 78, N-(1-(4-cyano-1H-pyrazol-3-yl)cyclopropane-1-carbonyl)-O-(4-(5,6,7,8-tetrahydro-1,8-naphthyridin-2-yl)butyl)-L-homoserine] |
| > 7.30 | ≤ 6.30 | 6.82 to 7.30 | COc1nccnc1C1(C(=O)N[C@@H](CCOCCCCc2ccc3c(n2)NCCC3)C(=O)O)CC1 [Compound 50, N-(1-(3-methoxypyrazin-2-yl)cyclopropane-1-carbonyl)-O-(4-(5,6,7,8-tetrahydro-1,8-naphthyridin-2-yl)butyl)-L-homoserine] |
| > 7.30 | < 6.30 | 6.82 to 7.30 | O=C(O)[C@H](CCOCCCCc1ccc2c(n1)NCCC2)NC(=O)C1(n2c(C3CC3)cccc2=O)CC1 [Compound 91, N-(1-(6-cyclopropyl-2-oxopyridin-1(2H)-yl)cyclopropane-1-carbonyl)-O-(4-(5,6,7,8-tetrahydro-1,8-naphthyridin-2-yl)butyl)-L-homoserine] |
| > 7.30 | < 6.30 | > 7.30 | [2H]C1([2H])C([2H])([2H])C1(C(=O)N[C@@H](CCOCCCCc1ccc2c(n1)NCCC2)C(=O)O)c1c(C)ncnc1Cl [Compound 104, N-(1-(4-chloro-6-methylpyrimidin-5-yl)cyclopropane-1-carbonyl-2,2,3,3-d4)-O-(4-(5,6,7,8-tetrahydro-1,8-naphthyridin-2-yl)butyl)-L-homoserine] |
| 6.82 to 7.30 | 6.30 to 6.60 | 6.30 to 6.60 | O=C(N[C@@H](CCOCCCCc1ccc2c(n1)NCCC2)C(=O)O)c1ccn(-c2ccccc2)n1 [Compound 97, N-(1-phenyl-1H-pyrazole-3-carbonyl)-O-(4-(5,6,7,8-tetrahydro-1,8-naphthyridin-2-yl)butyl)-L-homoserine] |
| > 7.30 | < 6.30 | > 7.30 | O=C(O)[C@H](CCOCCCCc1ccc2c(n1)NCCC2)NC(=O)C1(c2cccc(C(F)(F)F)c2)CCOCC1 [Compound 86, O-(4-(5,6,7,8-tetrahydro-1,8-naphthyridin-2-yl)butyl)-N-(4-(3-(trifluoromethyl)phenyl)tetrahydro-2H-pyran-4-carbonyl)-L-homoserine] |
| > 7.30 | < 6.30 | > 7.30 | O=C(O)[C@H](CCOCCCCc1ccc2c(n1)NCCC2)NC(=O)C1(n2c(Br)cccc2=O)CC1 [Compound 94, N-(1-(6-bromo-2-oxopyridin-1(2H)-yl)cyclopropane-1-carbonyl)-O-(4-(5,6,7,8-tetrahydro-1,8-naphthyridin-2-yl)butyl)-L-homoserine] |
| 6.82 to 7.30 | ≤ 6.30 | 6.82 to 7.30 | COCc1cccnc1C1(C(=O)N[C@@H](CCOCCCCc2ccc3c(n2)NCCC3)C(=O)O)CC1 [Compound 53, N-(1-(3-(methoxymethyl)pyridin-2-yl)cyclopropane-1-carbonyl)-O-(4-(5,6,7,8-tetrahydro-1,8-naphthyridin-2-yl)butyl)-L-homoserine] |
| > 7.30 | 6.30 to 6.60 | 6.82 to 7.30 | O=C(O)[C@H](CCOCCCCc1ccc2c(n1)NCCC2)NC(=O)C1(C(F)F)CCOC1 (stereo partly drawn) [Compound 83, N-(3-(difluoromethyl)tetrahydrofuran-3-carbonyl)-O-(4-(5,6,7,8-tetrahydro-1,8-naphthyridin-2-yl)butyl)-L-homoserine] |
| > 7.30 | < 6.30 | 6.82 to 7.30 | O=C(O)[C@H](CCOCCCCc1ccc2c(n1)NCCC2)NC(=O)C1(c2ccc(F)cc2)CCOCC1 [Compound 85, N-(4-(4-fluorophenyl)tetrahydro-2H-pyran-4-carbonyl)-O-(4-(5,6,7,8-tetrahydro-1,8-naphthyridin-2-yl)butyl)-L-homoserine] |

The next lines start with the compound.

| SMILES | pIC50 (human integrin αVβ1) | pIC50 (human integrin αVβ6) | pIC50 (human integrin αVβ8) |
| --- | --- | --- | --- |
| N#Cc1cc(F)ccc1C1(C(=O)N[C@@H](CCOCCCCc2ccc3c(n2)NCCC3)C(=O)O)CC1 [Compound 43, N-(1-(2-cyano-4-fluorophenyl)cyclopropane-1-carbonyl)-O-(4-(5,6,7,8-tetrahydro-1,8-naphthyridin-2-yl)butyl)-L-homoserine] | > 7.30 | ≤ 6.30 | > 7.30 |
| COc1cccnc1C1(C(=O)N[C@@H](CCOCCCCc2ccc3c(n2)NCCC3)C(=O)O)CC1 [Compound 30, N-(1-(3-methoxypyridin-2-yl)cyclopropane-1-carbonyl)-O-(4-(5,6,7,8-tetrahydro-1,8-naphthyridin-2-yl)butyl)-L-homoserine] | 6.82 to 7.30 | ≤ 6.30 | 6.82 to 7.30 |
| N#Cc1cncc(C2(C(=O)N[C@@H](CCOCCCCc3ccc4c(n3)NCCC4)C(=O)O)CC2)c1 [Compound 27, N-(1-(5-cyanopyridin-3-yl)cyclopropane-1-carbonyl)-O-(4-(5,6,7,8-tetrahydro-1,8-naphthyridin-2-yl)butyl)-L-homoserine] | > 7.30 | ≤ 6.30 | 6.60 to 6.82 |
| Cc1ccccc1C1(C(=O)N[C@@H](CCOCCCCc2ccc3c(n2)NCCC3)C(=O)O)CC1 [Compound 17, O-(4-(5,6,7,8-tetrahydro-1,8-naphthyridin-2-yl)butyl)-N-(1-(o-tolyl)cyclopropane-1-carbonyl)-L-homoserine] | 6.82 to 7.30 | ≤ 6.30 | > 7.30 |
| O=C(O)[C@H](CCOCCCCc1ccc2c(n1)NCCC2)NC(=O)C1(c2cncnc2)CC1 [Compound 22, N-(1-(pyrimidin-5-yl)cyclopropane-1-carbonyl)-O-(4-(5,6,7,8-tetrahydro-1,8-naphthyridin-2-yl)butyl)-L-homoserine] | > 7.30 | ≤ 6.30 | 6.60 to 6.82 |
| O=C(O)[C@H](CCOCCCCc1ccc2c(n1)NCCC2)NC(=O)C1(c2cc(F)cnc2F)CC1 [Compound 21, N-(1-(2,5-difluoropyridin-3-yl)cyclopropane-1-carbonyl)-O-(4-(5,6,7,8-tetrahydro-1,8-naphthyridin-2-yl)butyl)-L-homoserine] | > 7.30 | 6.60 to 6.82 | > 7.30 |
| Cc1cccc(C2(C(=O)N[C@@H](CCOCCCCc3ccc4c(n3)NCCC4)C(=O)O)CC2)n1 [Compound 20, N-(1-(6-methylpyridin-2-yl)cyclopropane-1-carbonyl)-O-(4-(5,6,7,8-tetrahydro-1,8-naphthyridin-2-yl)butyl)-L-homoserine] | 6.30 to 6.60 | ≤ 6.30 | ≤ 6.30 |
| Cc1ncncc1C1(C(=O)N[C@@H](CCOCCCCc2ccc3c(n2)NCCC3)C(=O)O)CC1 [Compound 19, N-(1-(4-methylpyrimidin-5-yl)cyclopropane-1-carbonyl)-O-(4-(5,6,7,8-tetrahydro-1,8-naphthyridin-2-yl)butyl)-L-homoserine] | > 7.30 | ≤ 6.30 | > 7.30 |
| O=C(O)[C@H](CCOCCCCc1ccc2c(n1)NCCC2)NC(=O)C1(c2c(Cl)cccc2Cl)CC1 [Compound 7, N-(1-(2,6-dichlorophenyl)cyclopropane-1-carbonyl)-O-(4-(5,6,7,8-tetrahydro-1,8-naphthyridin-2-yl)butyl)-L-homoserine] | > 7.30 | ≤ 6.30 | > 7.30 |
